“Also recorded” adds a separate entry of the source.

The values that follow come from US8765712B2, “Agent for preventing and treating pityriasis versicolor” (Justus-Liebig-Universitaet Giessen, priority 2009, dated 2014).

One data set deals with M. furfur CBS 1878. The data set can be described thus: Agar diffusion assay on pigment-inducing medium (p-agar) with TRP as sole nitrogen source. The class given is cell-based, Malassezia furfur. How it is done: The pigment-inducing medium (p-agar) is composed of (for 1 liter medium)
After autoclaving for 30 min at 1 bar, the following is added:
At approx. 50° C., the following heat-labile component is added:
The pH value is approximately pH 5.0.
Each 25 ml of the medium are poured into petri dishes with a diameter of 10 cm. A suspension of M. furfur CBS 1878 (approx. 5 inoculation loops of a strain previously grown on Dixon's agar) is suspended in 1 ml aq. dest., transferred to the p-agar and spread by tilting the plate. […] The pigment composition can be determined after extraction and separation via thin layer chromatography.
For this purpose, M. furfur CBS 1878 is spread on the surface of an agar plate with pigment-inducing medium as describe above, subsequently 4 mm-holes are punched into the agar using a sterile punch. […] The agar diffusion assay is performed with transaminase inhibitor e.g. aminooxyacetate (Sigma) in water, which is adjusted to pH 5 with 1 n NaOH. Concentrations are 0.05 molar top left; 0.1 molar top right; 0.25 molar bottom left, and 0.5 molar bottom right.
For orientation: In agar diffusion tests the substance spreads into inoculated agar from a disc or well.

Another data set deals with pityriasis versicolor. The data set can be described thus: Topical application in humans. The class given is in vivo. The text has this:
Transaminase inhibitors such as aminooxyacetate and/or cycloserine, e.g. D-cycloserine, DL-cycloserine, L-cycloserine or one of the derivatives thereof like e.g. terizidone are suitable for an application in humans. A topical application of 5% in unguentum emulsificans aquosum, applied over several days, is well tolerated without side effects. For prophylactic purposes, a 0.05-5% w/w preparation is used, preferably as shaking mixture/suspension cutanea aquosa, aqueous, oily, or alcoholic suspension, emulsion, paste, cream, ointment, spray, lipophilic gel, hydrophilic gel or plaster, shampoo, bath additive or mud, since the entire body should be treated if possible. For prophylaxis, application is performed daily up to several-day intervals. The same applies to the therapeutic use. D-cycloserine is preferably used in aqueous solution, e.g. 0.2 molar, adjusted to pH 7 with e.g. phosphate buffer.

Another data set has as its system M. furfur. Kind of data set: Agar diffusion assay on complete medium Dixon's agar. The conditions noted are these: 4 days, concentrations as in FIG. 1 (0.05-0.5 molar).

With `NC1CONC1=O` (racemic) [DL-cycloserine], the “suppression of pigment formation in vitro” value (from here on “suppression … in vitro”) in the data set on M. furfur CBS 1878 is “comparable suppression”. In addition, the “suppression of pigment formation in vivo in humans” value (“suppression … in humans” for short) in the data set on pityriasis versicolor is “comparable suppression”.

On to `N[C@@H]1CONC1=O` [D-cycloserine], for which the “suppression … in vitro” value with M. furfur CBS 1878 is reported as “comparable suppression”. Also, the healing of lesions result in the data set with pityriasis versicolor (aqueous solution 0.2 molar, pH 7 (phosphate buffer), twice a day, after three days) is on record as “complete healing of lesions”. For the same compound, the “side effects / tolerability” value in the data set on pityriasis versicolor (aqueous solution 0.2 molar, pH 7, twice a day) is “without side effects and is very well tolerated”. Further, the “suppression … in humans” value in the data set on pityriasis versicolor is “comparable suppression”.

With `N[C@H]1CONC1=O` [L-cycloserine], the “suppression … in vitro” value in the data set with M. furfur CBS 1878 is on record as “comparable suppression”. Besides, the “suppression … in humans” value with pityriasis versicolor is on record as “comparable suppression”.

Regarding `Cl.NOCC(=O)O.NOCC(=O)O` [aminooxyacetate, O-(carboxymethyl)hydroxylamine hemihydrochloride], the “pigment synthesis (tryptophan-dependent pathway)” value in the data set with M. furfur CBS 1878 (4-days old culture, TRP as sole nitrogen source, 20 μl in 4 mm holes, 0.05, 0.1, 0.25, 0.5 molar in water, pH 5, hemihydrochloride) is on record as “completely inhibited; also recorded: abolished”. For the same compound, in the data set with M. furfur CBS 1878 (pigment-inducing medium, TRP as sole nitrogen source, 0.05-0.5 molar, pH 5), the “growth of the fungus” value is on record as “inhibited”. In addition, the “effect of specific inhibition of transamination on complete medium” value with M. furfur is reported as “no effect”.

Take `O=C1NOCC1/N=C/c1ccc(/C=N/C2CONC2=O)cc1` (stereo not drawn) [terizidone]: the “suppression … in vitro” value with M. furfur CBS 1878 is “inhibit pigment formation”.
